Experimental findings from patent EP4768499A1, “MACROCYCLIC PEPTIDE COMPOUND HAVING CELL MEMBRANE PERMEABILITY AND METABOLIC STABILITY, AND LIBRARY CONTAINING SAME” (Chugai Seiyaku Kabushiki Kaisha, priority 2023, dated 2025) are described below.

Starred links: 1 amine or outer side, 2 acyl side, 3 side chain; linkers in the order of their positions; H or OH if unused. Positions of bridges follow the written chain, without caps; N, C: chain ends. Non-standard residues stand in square brackets, D forms with d. Residues, ends and D or L forms follow the SMILES beside them. *: point of attachment. NMeF = CN[C@@H](Cc1ccccc1)C(=O)O; NMeI = CC[C@H](C)[C@H](NC)C(=O)O; NMeT = CN[C@H](C(=O)O)[C@@H](C)O; hPhe = N[C@@H](CCc1ccccc1)C(=O)O; NMeβAla = CN(CCC(=O)[*:2])[*:1]; NMeD = CN[C@@H](CC(=O)O)C(=O)O; NMeL = CN[C@@H](CC(C)C)C(=O)O; dNMeV = CN[C@@H](C(=O)O)C(C)C; NMeV = CN[C@H](C(=O)O)C(C)C; NMeAbu = CC[C@H](NC)C(=O)O; NMeA = CN[C@@H](C)C(=O)O; Piperidide = C1CCN(*)CC1; Abu = CC[C@H](N)C(=O)O; NBuGly = CCCCNCC(=O)O; βAla = NCCC(=O)O; Sar = CNCC(=O)O; tBu = CC(C)(C)* Some results are limits rather than exact numbers.

One series deals with Caco-2 cells. Nature of the series: Membrane permeability test using Caco-2 cells with preincubation. The format is in vitro ADME. To be noted: Caco-2 cells, preincubation 20 to 24 hours; apical FaSSIF/HBSS 1% DMSO pH 6.0, basal HBSS 4% BSA pH 7.4; basal sample at 180 minutes.
Experiment in series [1]: as above
The following applies: Caco-2; preincubation 20 to 24 hours; Apical FaSSIF/HBSS pH 6.0, Basal HBSS 4% BSA pH 7.4; 180 minutes; read-out: Caco2 Papp. In kind it is in vitro ADME.

Series [2] can be described thus: Metabolic stability test: liver microsomal stability assay. In kind it is in vitro ADME, mouse. To be noted: mouse liver microsomes 0.5 mg protein/mL, compound 1 µM; for microsomal CLint at 1 µM: male, pH 7.4, presence of NADPH, read-out: Mouse Hepatic Microsome CLh,int NADPH(+); for Mouse Hepatic Microsome CLh,int NADPH(-): absence of NADPH. Background: Liver microsomes are vesicles of endoplasmic reticulum, rich in cytochrome P450 enzymes.

Turning to `CC[C@@H]1NC(=O)[C@H](CC(C)C)N(C)C(=O)[C@H](C)NC(=O)[C@@H]2CCCN2C(=O)[C@H](CC)N(C)C(=O)[C@H](CC(C)C)N(C)C(=O)CN(C)C(=O)[C@H](Cc2ccccc2)N(C)C(=O)[C@H]([C@@H](C)CC)NC(=O)CCN(C)C(=O)[C@H](C(C)C)N(C)C(=O)[C@H](COC(C)(C)C)NC(=O)[C@H](CC(C)C)N(C)C(=O)C[C@@H](C(=O)N2CCCCC2)N(C)C1=O` [pd083] ([NMeL]S(tBu)[NMeV][NMeβAla]I[NMeF][Sar][NMeL][NMeAbu]PA[NMeL][Abu][NMeD]-Piperidide; lactam N-14), the “Caco2 Papp (10^-6 cm/sec)” value in the series on Caco-2 cells is reported as 0.04 10^-6 cm/sec. The Papp A→B in series [1] stood at 0.04 ×10⁻⁶ cm/s. Moreover, in series [2], the microsomal CLint at 1 µM worked out at 11.4 µL/min/mg and the “Mouse Hepatic Microsome CLh,int NADPH(-)” value came to 7.3 µL/min/mg Protein.
For the compound `CC[C@H](C)[C@@H]1NC(=O)[C@H](CC(C)C)N(C)C(=O)[C@H](CC(C)C)N(C)C(=O)[C@H](C)N(C)C(=O)C[C@@H](C(=O)N2CCCCC2)N(C)C(=O)[C@H](C)N(C)C(=O)[C@H](CC(C)C)NC(=O)[C@H](C(C)C)N(C)C(=O)[C@H](CC(C)C)N(C)C(=O)CNC(=O)[C@H]([C@@H](C)CC)N(C)C(=O)[C@H](Cc2ccccc2)N(C)C(=O)[C@H](C)NC(=O)[C@H](Cc2ccccc2)N(C)C1=O` [pd084] ([NMeA][NMeL][NMeL]I[NMeF]A[NMeF][NMeI]G[NMeL][NMeV]L[NMeA][NMeD]-Piperidide; lactam N-14), the “Caco2 Papp (10^-6 cm/sec)” value in the series with Caco-2 cells was 0.21 10^-6 cm/sec. The Papp A→B in series [1] stood at 0.21 ×10⁻⁶ cm/s. In addition, in series [2], the microsomal CLint at 1 µM stood at 39 µL/min/mg and the “Mouse Hepatic Microsome CLh,int NADPH(-)” value amounted to 37.8 µL/min/mg Protein.
On the same counts, the results for `CC[C@H](C)[C@@H]1NC(=O)[C@H](CC(C)C)N(C)C(=O)CN(C)C(=O)C[C@@H](C(=O)N2CCCCC2)N(C)C(=O)CNC(=O)[C@H](C)N(C)C(=O)[C@H](CC)N(C)C(=O)[C@H](C(C)C)N(C)C(=O)[C@H](C)N(C)C(=O)[C@H](Cc2ccccc2)N(C)C(=O)[C@H](CC(C)C)NC(=O)[C@H](Cc2ccccc2)N(C)C(=O)[C@H](C(C)C)NC(=O)[C@H](CC(C)C)N(C)C1=O` [pd085] ([Sar][NMeL]I[NMeL]V[NMeF]L[NMeF][NMeA][NMeV][NMeAbu][NMeA]G[NMeD]-Piperidide; lactam N-14) are 0.17 10^-6 cm/sec, 0.17 ×10⁻⁶ cm/s, 26.9 µL/min/mg and 28.9 µL/min/mg Protein.
On the same counts, the results for `CC(C)C[C@@H]1NC(=O)[C@H](CC(C)C)N(C)C(=O)[C@H]([C@@H](C)O)NC(=O)[C@H](C(C)C)N(C)C(=O)[C@H](Cc2ccccc2)N(C)C(=O)[C@@H](C(C)C)NC(=O)C[C@@H](C(=O)N2CCCCC2)N(C)C(=O)[C@H](C)N(C)C(=O)[C@H](Cc2ccccc2)N(C)C(=O)[C@H](C)NC(=O)[C@H](COC(C)(C)C)NC(=O)[C@H](CC(C)C)N(C)C(=O)[C@H](C(C)C)NC(=O)CN(C)C1=O` [pd086] ([dV][NMeF][NMeV]T[NMeL]L[Sar]V[NMeL]S(tBu)A[NMeF][NMeA][NMeD]-Piperidide; lactam N-14) are 0.06 10^-6 cm/sec, 0.06 ×10⁻⁶ cm/s, 20.1 µL/min/mg and 20.0 µL/min/mg Protein.
Taken in the same sequence, the figures for `CCCCN1CC(=O)N(C)[C@@H](CC(C)C)C(=O)N[C@@H]([C@@H](C)O)C(=O)N(C)[C@@H](C)C(=O)N2CCC[C@H]2C(=O)N[C@@H](CCc2ccccc2)C(=O)N[C@@H]([C@@H](C)CC)C(=O)N(C)[C@H](C(=O)N2CCCCC2)CC(=O)N(C)[C@@H](CC(C)C)C(=O)N[C@@H](COC(C)(C)C)C(=O)N(C)[C@@H](C(C)C)C(=O)N[C@@H]([C@@H](C)CC)C(=O)N2CCC[C@H]2C(=O)N[C@@H](C(C)C)C1=O` [pd087] ([NMeL]S(tBu)[NMeV]IPV[NBuGly][NMeL]T[NMeA]P[hPhe]I[NMeD]-Piperidide; lactam N-14) were <0.07 10^-6 cm/sec, less than 0.07 ×10⁻⁶ cm/s, 31.8 µL/min/mg and 29.0 µL/min/mg Protein.
As to `CC[C@@H]1NC(=O)[C@H](C(C)C)N(C)C(=O)[C@H](C(C)C)NC(=O)[C@H](C)N(C)C(=O)CCN(C)C(=O)[C@H](CCc2ccccc2)NC(=O)[C@H](CC(C)C)N(C)C(=O)[C@H]([C@@H](C)CC)NC(=O)CN(C)C(=O)C[C@@H](C(=O)N2CCCCC2)N(C)C(=O)[C@H](CC(C)C)NC(=O)[C@H](CC(C)C)N(C)C(=O)[C@H]([C@@H](C)O)NC(=O)[C@H](Cc2ccccc2)N(C)C1=O` [pd088] ([Sar]I[NMeL][hPhe][NMeβAla][NMeA]V[NMeV][Abu][NMeF]T[NMeL]L[NMeD]-Piperidide; lactam N-14), the “Caco2 Papp (10^-6 cm/sec)” value in the series on Caco-2 cells was 0.11 10^-6 cm/sec. In series [1], the Papp A→B is 0.11 ×10⁻⁶ cm/s. In series [2], the microsomal CLint at 1 µM was 20.9 µL/min/mg and the “Mouse Hepatic Microsome CLh,int NADPH(-)” value is on record as 24.2 µL/min/mg Protein.
Taken in the same sequence, the figures for `CC[C@@H]1NC(=O)[C@H](Cc2ccccc2)N(C)C(=O)[C@H](COC(C)(C)C)NC(=O)[C@H](CC(C)C)N(C)C(=O)[C@H](C)N(C)C(=O)[C@H]([C@@H](C)O)NC(=O)[C@H](CC(C)C)N(C)C(=O)[C@H](C(C)C)N(C)C(=O)[C@H](CCc2ccccc2)NC(=O)[C@H](CC(C)C)N(C)C(=O)[C@@H](C(C)C)N(C)C(=O)C[C@@H](C(=O)N2CCCCC2)N(C)C(=O)[C@H](CC(C)C)NC(=O)[C@H](C(C)C)N(C)C1=O` [pd089] ([dNMeV][NMeL][hPhe][NMeV][NMeL]T[NMeA][NMeL]S(tBu)[NMeF][Abu][NMeV]L[NMeD]-Piperidide; lactam N-14) were <0.11 10^-6 cm/sec, less than 0.11 ×10⁻⁶ cm/s, 29 µL/min/mg and 29.8 µL/min/mg Protein.
On the same counts, the results for `CC[C@@H]1NC(=O)[C@H](CC(C)C)N(C)C(=O)[C@H]([C@@H](C)O)NC(=O)[C@H](C(C)C)N(C)C(=O)[C@H](C)NC(=O)[C@H](Cc2ccccc2)N(C)C(=O)[C@@H](C(C)C)NC(=O)C[C@@H](C(=O)N2CCCCC2)N(C)C(=O)CN(C)C(=O)[C@H](Cc2ccccc2)N(C)C(=O)[C@H](C)N(C)C(=O)[C@H](COC(C)(C)C)NC(=O)[C@H](CC(C)C)N(C)C(=O)CN(C)C1=O` [pd090] ([dV][NMeF]A[NMeV]T[NMeL][Abu][Sar][NMeL]S(tBu)[NMeA][NMeF][Sar][NMeD]-Piperidide; lactam N-14) are <0.12 10^-6 cm/sec, less than 0.12 ×10⁻⁶ cm/s, 45 µL/min/mg and 23.9 µL/min/mg Protein.
On the same counts, the results for `CC[C@@H]1NC(=O)[C@H](Cc2ccccc2)N(C)C(=O)[C@H](COC(C)(C)C)NC(=O)[C@H](CC(C)C)N(C)C(=O)[C@H](CC(C)C)NC(=O)[C@H](C)N(C)C(=O)C[C@@H](C(=O)N2CCCCC2)N(C)C(=O)[C@H](CC(C)C)N(C)C(=O)[C@H]([C@@H](C)CC)NC(=O)[C@H](Cc2ccccc2)N(C)C(=O)[C@H]([C@@H](C)O)N(C)C(=O)[C@H](CC)N(C)C(=O)[C@H](CC(C)C)NC(=O)CN(C)C1=O` [pd091] ([NMeA]L[NMeL]S(tBu)[NMeF][Abu][Sar]L[NMeAbu][NMeT][NMeF]I[NMeL][NMeD]-Piperidide; lactam N-14) are 0.11 10^-6 cm/sec, 0.11 ×10⁻⁶ cm/s, 39.4 µL/min/mg and 36.1 µL/min/mg Protein.
As for `CC[C@H](C)[C@@H]1NC(=O)CN(C)C(=O)C[C@@H](C(=O)N2CCCCC2)N(C)C(=O)[C@H](C(C)C)NC(=O)[C@H](Cc2ccccc2)N(C)C(=O)[C@H](CC(C)C)N(C)C(=O)[C@H]([C@@H](C)O)NC(=O)[C@H](CC(C)C)N(C)C(=O)[C@H](CC(C)C)NC(=O)[C@H](C(C)C)N(C)C(=O)[C@H](C)N(C)C(=O)[C@H](CC(C)C)N(C)C(=O)[C@H](CCc2ccccc2)NC(=O)[C@H](CC(C)C)N(C)C1=O` [pd092] ([Sar]I[NMeL][hPhe][NMeL][NMeA][NMeV]L[NMeL]T[NMeL][NMeF]V[NMeD]-Piperidide; lactam N-14), in the series with Caco-2 cells, the “Caco2 Papp (10^-6 cm/sec)” value is 0.09 10^-6 cm/sec. The Papp A→B in series [1] worked out at 0.09 ×10⁻⁶ cm/s. In series [2], the microsomal CLint at 1 µM was determined as 22 µL/min/mg and the “Mouse Hepatic Microsome CLh,int NADPH(-)” value turned out to be 26.3 µL/min/mg Protein.
Taken in the same sequence, the figures for `CC[C@H]1C(=O)N(C)[C@@H](C(C)C)C(=O)N[C@@H](CC(C)C)C(=O)N(C)[C@H](C(=O)N2CCCCC2)CC(=O)N(C)[C@H](C(C)C)C(=O)N(C)[C@@H](CC(C)C)C(=O)N[C@@H](CCc2ccccc2)C(=O)N(C)[C@@H](C(C)C)C(=O)N(C)[C@@H](CC(C)C)C(=O)N[C@@H]([C@@H](C)O)C(=O)N(C)[C@@H](C)C(=O)N(C)[C@@H](CC(C)C)C(=O)N[C@@H](COC(C)(C)C)C(=O)N(C)[C@@H](Cc2ccccc2)C(=O)N1C` [pd093] ([dNMeV][NMeL][hPhe][NMeV][NMeL]T[NMeA][NMeL]S(tBu)[NMeF][NMeAbu][NMeV]L[NMeD]-Piperidide; lactam N-14) were <0.14 10^-6 cm/sec, less than 0.14 ×10⁻⁶ cm/s, 26.8 µL/min/mg and 20.4 µL/min/mg Protein.
With `CC[C@H]1C(=O)N(C)CC(=O)N(C)[C@@H](CC(C)C)C(=O)N[C@@H](COC(C)(C)C)C(=O)N(C)[C@@H](C)C(=O)N(C)[C@@H](Cc2ccccc2)C(=O)N(C)CC(=O)N(C)[C@H](C(=O)N2CCCCC2)CC(=O)N[C@H](C(C)C)C(=O)N(C)[C@@H](Cc2ccccc2)C(=O)NCCC(=O)N(C)[C@@H](C(C)C)C(=O)N[C@@H]([C@@H](C)O)C(=O)N(C)[C@@H](CC(C)C)C(=O)N1C` [pd094] ([dV][NMeF][βAla][NMeV]T[NMeL][NMeAbu][Sar][NMeL]S(tBu)[NMeA][NMeF][Sar][NMeD]-Piperidide; lactam N-14), the “Caco2 Papp (10^-6 cm/sec)” value in the series on Caco-2 cells is given as <0.13 10^-6 cm/sec. For the same compound, the Papp A→B in series [1] was less than 0.13 ×10⁻⁶ cm/s. Further, in series [2], the microsomal CLint at 1 µM stood at 22.5 µL/min/mg and the “Mouse Hepatic Microsome CLh,int NADPH(-)” value is listed as 16.7 µL/min/mg Protein.
